One may read the IC50 as the concentration that gives 50% inhibition. A lower IC50 goes with greater potency in that assay.

Test [1] addresses PI3-Kα (Mus musculus (Mouse), UniProt P42337). The experiment in a line: PI3-Kα Biochemical Assay (fluorescence polarization kinase assay). A digest of the protocol: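 Co-expressed mouse p110/p85 PI3-Kα (4 nM stock) acting on PI(4,5)P2 (60 μM stock) with ATP/MgCl2 in HEPES pH 7.4 buffer, 35 min at room temperature, then EDTA stop. PI(3,4,5)P3 product detected by displacement of TAMRA-PIP3 from Grip1 PH domain (FP, 535/580 nm). IC50 from sigmoidal fit of % inhibition.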
For orientation: In fluorescence polarisation assays a small probe gives low polarisation when free and higher when bound to something large.

Test [2] deals with PI3-K in BT20 cells (phosphorylation of AKT at serine 473). The test is described as follows: PI3-Kα Cellular Assay (AKT Ser473 phosphorylation ELISA in BT20 cells). The format is cell-based, human. To be noted: Homo sapiens, BT-20, pAKT Ser473 ELISA, 1 hour incubation. A digest of the protocol:
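Cells seeded overnight in 0.5% FBS, then exposed 1 h at 37 °C to an 11-concentration 1:3 dilution series, in duplicate.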
On the technique in general: ELISA stands for enzyme-linked immunosorbent assay.

Each structure is given as a SMILES string.

PI3-Kα, sequence (P42337 whole entry, the tested form may be a part): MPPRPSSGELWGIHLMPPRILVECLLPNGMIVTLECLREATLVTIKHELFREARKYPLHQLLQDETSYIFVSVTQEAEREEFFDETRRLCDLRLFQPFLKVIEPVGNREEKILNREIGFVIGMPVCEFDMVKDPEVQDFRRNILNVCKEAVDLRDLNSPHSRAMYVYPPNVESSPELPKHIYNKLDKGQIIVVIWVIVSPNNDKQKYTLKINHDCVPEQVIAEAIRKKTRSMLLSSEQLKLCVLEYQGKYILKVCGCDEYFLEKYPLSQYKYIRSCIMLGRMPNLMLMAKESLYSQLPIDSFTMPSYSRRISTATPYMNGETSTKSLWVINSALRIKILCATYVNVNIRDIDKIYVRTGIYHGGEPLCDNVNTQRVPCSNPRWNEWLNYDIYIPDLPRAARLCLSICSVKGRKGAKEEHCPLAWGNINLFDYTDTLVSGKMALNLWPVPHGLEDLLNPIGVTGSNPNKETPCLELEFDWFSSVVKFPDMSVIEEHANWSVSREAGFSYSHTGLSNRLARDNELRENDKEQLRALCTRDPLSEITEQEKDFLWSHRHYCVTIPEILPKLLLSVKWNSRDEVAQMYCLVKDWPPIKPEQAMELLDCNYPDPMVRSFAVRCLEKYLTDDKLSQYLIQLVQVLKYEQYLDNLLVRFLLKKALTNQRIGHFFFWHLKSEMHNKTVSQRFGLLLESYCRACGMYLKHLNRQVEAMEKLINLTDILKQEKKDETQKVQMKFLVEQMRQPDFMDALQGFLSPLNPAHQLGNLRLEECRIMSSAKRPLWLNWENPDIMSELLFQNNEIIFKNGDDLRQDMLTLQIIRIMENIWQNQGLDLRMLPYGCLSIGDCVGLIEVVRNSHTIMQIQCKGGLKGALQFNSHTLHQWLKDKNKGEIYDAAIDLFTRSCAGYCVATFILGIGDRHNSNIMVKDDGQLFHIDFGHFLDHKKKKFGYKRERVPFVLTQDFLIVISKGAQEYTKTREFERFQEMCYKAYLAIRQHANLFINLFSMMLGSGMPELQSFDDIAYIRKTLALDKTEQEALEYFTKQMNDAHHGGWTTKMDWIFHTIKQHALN
PI3-Kα, sequence (P26450 whole entry partner, the tested form may be a part): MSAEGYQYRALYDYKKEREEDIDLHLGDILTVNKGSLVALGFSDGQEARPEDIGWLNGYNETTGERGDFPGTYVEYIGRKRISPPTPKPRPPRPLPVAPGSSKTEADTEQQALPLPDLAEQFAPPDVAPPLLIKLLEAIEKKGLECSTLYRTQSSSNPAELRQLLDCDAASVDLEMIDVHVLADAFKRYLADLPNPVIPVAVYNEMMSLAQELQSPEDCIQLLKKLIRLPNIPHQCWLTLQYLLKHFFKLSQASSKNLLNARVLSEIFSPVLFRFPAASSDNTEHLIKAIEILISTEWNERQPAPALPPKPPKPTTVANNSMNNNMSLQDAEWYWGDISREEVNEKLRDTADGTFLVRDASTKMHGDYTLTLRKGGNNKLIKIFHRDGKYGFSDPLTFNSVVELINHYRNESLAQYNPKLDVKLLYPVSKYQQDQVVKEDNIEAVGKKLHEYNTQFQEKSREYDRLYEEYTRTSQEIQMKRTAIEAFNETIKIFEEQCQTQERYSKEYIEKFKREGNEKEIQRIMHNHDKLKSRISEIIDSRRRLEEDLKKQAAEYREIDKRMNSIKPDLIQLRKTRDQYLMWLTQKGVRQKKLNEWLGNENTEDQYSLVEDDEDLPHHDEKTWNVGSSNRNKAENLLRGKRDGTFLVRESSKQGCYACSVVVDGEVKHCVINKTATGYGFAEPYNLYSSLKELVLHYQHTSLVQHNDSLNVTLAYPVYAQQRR

Consider `Cc1nc(N)nc2c1cc(-c1cnc3[nH]ccc3c1)c(=O)n2C1CCOCC1` [Compound 201, 2-amino-4-methyl-6-(1H-pyrrolo[2,3-b]pyridin-5-yl)-8-(tetrahydro-2H-pyran-4-yl)pyrido[2,3-d]pyrimidin-7(8H)-one], for which the results for the IC50 in test [1] and in test [2] were 3.7 nM and 15.3 nM, respectively.

Take `Cc1nc(N)nc2c1cc(Br)c(=O)n2C1CCOC1` (centres unmarked) [Compound 202, 2-amino-6-bromo-4-methyl-8-(tetrahydrofuran-3-yl)pyrido[2,3-d]pyrimidin-7(8H)-one]: the half-inhibitory concentration (IC50) was 230 nM in test [1] and 1670 nM in test [2].

For the compound `Cc1nc(N)nc2c1cc(-c1cn[nH]c1)c(=O)n2C1CCOC1` (centres unmarked) [Compound 203], the 50% inhibitory concentration (IC50) was 20 nM in test [1] and 25.8 nM in test [2].

As to `Cc1nc(N)nc2c1cc(-c1cnc3[nH]ccc3c1)c(=O)n2C1CCC1` [Compound 207, 2-amino-8-cyclobutyl-4-methyl-6-(1H-pyrrolo[2,3-d]pyridin-5-yl)pyrido[2,3-d]pyrimidin-7(8H)-one], the figures for the half-inhibitory concentration (IC50) in test [1] and in test [2] were 2 nM and 11.9 nM, respectively.

In the case of `COc1ccc(-c2cc3c(C)nc(N)nc3n(C(C)C)c2=O)cn1` [Compound 209, 2-amino-8-isopropyl-6-(6-methoxypyridin-3-yl)-4-methylpyrido[2,3-d]pyrimidin-7(8H)-one], the concentration for half-maximal inhibition (IC50) in test [1] came to 11 nM; in test [2], 64 nM.

Regarding `Cc1nc(N)nc2c1cc(-c1cnc3[nH]ccc3c1)c(=O)n2C(C)C` [Compound 210, 2-amino-8-isopropyl-4-methyl-6-(1H-pyrrolo[2,3-d]pyridin-5-yl)pyrido[2,3-d]pyrimidin-7(8H)-one], the IC50 in test [1] came out at 2.3 nM; in test [2], 6.77 nM.

As for `Cc1nc(N)nc2c1cc(-c1cnc3[nH]ccc3c1)c(=O)n2C1CC1` [Compound 213, 2-amino-8-cyclopropyl-4-methyl-6-(1H-pyrrolo[2,3-b]pyridin-5-yl)pyrido[2,3-d]pyrimidin-7(8H)-one], the IC50 came out at 17 nM in test [1] and 138 nM in test [2].

As for `CNc1nc(C)c2cc(Br)c(=O)n(CC3CCOC3)c2n1` (centres unmarked) [Compound 214, 6-bromo-4-methyl-2-(methylamino)-8-((tetrahydrofuran-3-yl)methyl)pyrido[2,3-d]pyrimidin-7(8H)-one], the IC50 was 48 nM in test [1] and 594 nM in test [2].

As to `CNc1nc(C)c2cc(-c3cn[nH]c3)c(=O)n(CC3CCOC3)c2n1` (centres unmarked) [Compound 215, 4-methyl-2-(methylamino)-6-(1H-pyrazol-4-yl)-8-((tetrahydrofuran-3-yl)methyl)pyrido[2,3-d]pyrimidin-7(8H)-one], the concentration for half-maximal inhibition (IC50) in test [1] amounted to 6 nM; in test [2] it was 22.1 nM.

Regarding `CNc1nc(C)c2cc(-c3ccc(OC)nc3)c(=O)n(CC3CCOC3)c2n1` (centres unmarked) [Compound 216, 6-(6-methoxypyridin-3-yl)-4-methyl-2-(methylamino)-8-((tetrahydrofuran-3-yl)methyl)pyrido[2,3-d]pyrimidin-7(8H)-one], the IC50 in test [1] turned out to be 4.6 nM; in test [2], 45.6 nM.

Take `CNc1nc(C)c2cc(-c3cnc4[nH]ccc4c3)c(=O)n(CC3CCOC3)c2n1` (centres unmarked) [Compound 217, 4-methyl-2-(methylamino)-6-(1H-pyrrolo[2,3-b]pyridin-5-yl)-8-((tetrahydrofuran-3-yl)methyl)pyrido[2,3-d]pyrimidin-7(8H)-one]: the IC50 in test [1] came out at 1.6 nM; in test [2] it was 13.5 nM.

`Cc1nc(N)nc2c1cc(Br)c(=O)n2CC1CCOC1` (centres unmarked) [Compound 218, 2-amino-6-bromo-4-methyl-8-((tetrahydrofuran-3-yl)methyl)pyrido[2,3-d]pyrimidin-7(8H)-one]: the half-maximal inhibitory concentration (IC50) in test [1] is 94 nM; in test [2], 1020 nM.

With `Cc1nc(N)nc2c1cc(-c1cnc3[nH]ccc3c1)c(=O)n2CC1CCOC1` (centres unmarked) [Compound 221, 2-amino-4-methyl-6-(1H-pyrrolo[2,3-b]pyridin-5-yl)-8-((tetrahydrofuran-3-yl)methyl)pyrido[2,3-d]pyrimidin-7(8H)-one], the IC50 came to 2.8 nM in test [1] and 57.8 nM in test [2].

`Cc1nc(N)nc2c1cc(Br)c(=O)n2CC1CCCO1` (centres unmarked) [Compound 222, 2-amino-6-bromo-4-methyl-8-((tetrahydrofuran-2-yl)methyl)pyrido[2,3-d]pyrimidin-7(8H)-one]: the half-inhibitory concentration (IC50) in test [1] amounted to 100 nM; in test [2], 2130 nM.

In the case of `COc1ccc(-c2cc3c(C)nc(N)nc3n(CC3CCCO3)c2=O)cn1` (centres unmarked) [Compound 224, 2-amino-6-(6-methoxypyridin-3-yl)-4-methyl-8-((tetrahydrofuran-2-yl)methyl)pyrido[2,3-d]pyrimidin-7(8H)-one], the IC50 amounted to 21 nM in test [1] and 120 nM in test [2].

Consider `Cc1nc(N)nc2c1cc(-c1cnc3[nH]ccc3c1)c(=O)n2CC1CCCO1` (centres unmarked) [Compound 225, 2-amino-4-methyl-6-(1H-pyrrolo[2,3-b]pyridin-5-yl)-8-((tetrahydrofuran-2-yl)methyl)pyrido[2,3-d]pyrimidin-7(8H)-one], for which the 50% inhibitory concentration (IC50) is 5.4 nM in test [1] and 36.6 nM in test [2].

As for `Cc1nc(N)nc2c1cc(-c1cn[nH]c1)c(=O)n2C1CN(C(=O)OC(C)(C)C)C1` [Compound 226, tert-butyl 3-(2-amino-4-methyl-7-oxo-6-(1H-pyrazol-4-yl)pyrido[2,3-d]pyrimidin-8(7H)-yl)azetidine-1-carboxylate], the values for the IC50 in test [1] and in test [2] were 120 nM and 41.5 nM, respectively.

On to `COc1ccc(-c2cc3c(C)nc(N)nc3n(C3CN(C(=O)OC(C)(C)C)C3)c2=O)cn1` [Compound 227], for which the figures for the IC50 in test [1] and in test [2] were 29 nM and 318 nM, respectively.

With `Cc1nc(N)nc2c1cc(-c1cnc3[nH]ccc3c1)c(=O)n2C1CN(C(=O)OC(C)(C)C)C1` [Compound 228, tert-butyl 3-(2-amino-4-methyl-7-oxo-6-(1H pyrrolo[2,3-b]pyridin-5 yl)pyrido[2,3-d]pyrimidin-8(7H)-yl)azetidine-1-carboxylate], the concentration for half-maximal inhibition (IC50) in test [1] was determined as 38 nM; in test [2], 256 nM.

As for `Cc1nc(N)nc2c1cc(-c1cnc(N)cn1)c(=O)n2C1CCCC1` [Compound 229, 2-amino-6-(5-aminopyrazin-2-yl)-8-cyclopentyl-4-methylpyrido[2,3-d]pyrimidin-7(8H)-one], the 50% inhibitory concentration (IC50) in test [1] is 15 nM; in test [2], 17.9 nM.

Consider `Cc1nc(N)nc2c1cc(-c1cncc(N)n1)c(=O)n2C1CCCC1` [Compound 230, 2-amino-6-(6-aminopyrazin-2-yl)-8-cyclopentyl-4-methylpyrido[2,3-d]pyrimidin-7(8H)-one], for which the concentration for half-maximal inhibition (IC50) in test [1] stood at 20 nM; in test [2] it was 33.9 nM.

Turning to `Cc1nc(N)nc2c1cc(-c1cccc(Cl)n1)c(=O)n2C1CCCC1` [Compound 231, 2-Amino-6-(6-chloro-pyridin-2-yl)-8-cyclopentyl-4-methyl-8H-pyrido[2,3-d]pyrimidin-7-one], the half-inhibitory concentration (IC50) in test [1] was determined as 170 nM; in test [2], 3450 nM.

With `CNc1nc(C)c2cc(-c3ccc(OC)nc3)c(=O)n(CCC3CC3)c2n1` [Compound 232, 8-(2-Cyclopropyl-ethyl)-6-(6-methoxy-pyridin-3-yl)-4-methyl-2-methylamino-8H-pyrido[2,3-d]pyrimidin-7-one], the figures for the IC50 in test [1] and in test [2] were 8.9 nM and 41.4 nM, respectively.

Regarding `COc1ccc(-c2cc3c(C)nc(N)nc3n(CCC3CC3)c2=O)cn1` [Compound 233, 2-Amino-8-(2-cyclopropyl-ethyl)-6-(6-methoxy-pyridin-3-yl)-4-methyl-8H-pyrido[2,3-d]pyrimidin 7-one], the values for the IC50 in test [1] and in test [2] were 11 nM and 94.2 nM, respectively.

In the case of `CNc1nc(C)c2cc(-c3cnn(C)c3)c(=O)n(C3CCCC3)c2n1` [Compound 234, 8-Cyclopentyl-4-methyl-2-methylamino-6-(1-melhyl-1H-pyrazol-4-yl)-8H-pyrido[2,3-d]pyrimidin-7-one], the IC50 in test [1] was 39 nM; in test [2] it was 314 nM.

Turning to `CNc1nc(C)c2cc(-c3cnn(CC(F)F)c3)c(=O)n(C3CCCC3)c2n1` [Compound 236, 8-Cyclopentyl-6-[1-(2,2-difluoro-ethyl)-1H pyrazol-4-yl]-4-methyl 2-methylamino-8H-pyrido[2,3 d]pyrimidin-7-one], the IC50 in test [1] was 46 nM; in test [2], 10000 nM.

For the compound `Cc1nc(N)nc2c1cc(-c1cnn(CC(F)F)c1)c(=O)n2C1CCCC1` [Compound 237, 2-Amino-8-cyclopentyl-6-[1-(2,2-drfluoro-ethyl)-1H-pyrazol-4-yl]-4-methyl 8H-pyrido[2,3-d]pyrimidin-7-one], the IC50 in test [1] was 12 nM; in test [2], 397 nM.

For `COc1ccc(-c2cc3c(C)nc(N)nc3n(CCN)c2=O)cn1` [Compound 238, 2-Amino-8-(2-amino-ethyl)-6-(6-methoxy-pyridin-3-yl)-4-methyl-8H-pyrido[2,3-d]pyrimidin-7-one], the IC50 turned out to be 340 nM in test [1] and 4530 nM in test [2].

Take `Cc1nc(N)nc2c1cc(-c1cnn(CC(C)(C)O)c1)c(=O)n2C1CCCC1` [Compound 240, 2-Amino-8-cyclopentyl-6-[1-(2-hydroxy-2-methyl-propyl)-1H-pyrazol-4-yl]-4-methyl-8H-pyrido[2,3-d]pyrimidin-7-one]: the 50% inhibitory concentration (IC50) in test [1] was 89 nM; in test [2], 101 nM.

On to `COc1ccc(-c2cc3c(C)nc(N)nc3n(CC3CCOCC3)c2=O)cn1` [Compound 242, 2-Amino-6-(6-methoxy-pyridin-3-yl)-4-methyl-8-(tetrahydro-pyran-4-ylmethyl)-8H-pyrido[2,3-d]pyrimidin-7-one], for which the IC50 turned out to be 15 nM in test [1] and 88.4 nM in test [2].

For `COc1ccc(-c2cc3c(C)nc(N)nc3n(CC3(F)CCOCC3)c2=O)cn1` [Compound 243, 2-Amino-8-(4-fluoro-tetrahydro-pyran-4-ylmethyl)-6-(6-methoxy-pyridin-3-yl)-4-methyl-8H-pyrido[2,3-d]pyrimidin 7-one], the half-inhibitory concentration (IC50) turned out to be 18 nM in test [1] and 316 nM in test [2].

The values are drawn from US8633204B2 (Pfizer Inc., priority 2006, dated 2014).
